Assay results: ChEMBL document CHEMBL3046289, “Synthesis and in vitro antimicrobial activity of some newer quinazolinonesulfonamide linked hybrid heterocyclic entities derived from glycine” (2013)
Converted amounts (≈) assume the structure as drawn.

Columns and labels:
Assay type in all cases: functional
[1] = system: Aspergillus niger; assay: Antifungal activity against Aspergillus niger MTCC 282 assessed as growth inhibition after 48 hr by broth microdilution method; details: MTCC 282, 48 h
[2] = system: Klebsiella pneumoniae; assay: Antibacterial activity against Klebsiella pneumoniae MTCC 139 assessed as growth inhibition after 24 hr by broth microdilution method; details: MTCC 139, 24 h
[3] = system: Bacillus cereus; assay: Antibacterial activity against Bacillus cereus MTCC 1305 assessed as growth inhibition after 24 hr by broth microdilution method; details: MTCC 1305, 24 h
[4] = system: Candida albicans; assay: Antifungal activity against Candida albicans MTCC 227 assessed as growth inhibition after 48 hr by broth microdilution method; details: MTCC 227, 48 h
[5] = system: Pseudomonas aeruginosa; assay: Antibacterial activity against Pseudomonas aeruginosa MTCC 1688 assessed as growth inhibition after 24 hr by broth microdilution method; details: MTCC 1688, 24 h
[6] = system: Escherichia coli; assay: Antibacterial activity against Escherichia coli MTCC 443 assessed as growth inhibition after 24 hr by broth microdilution method; details: MTCC 443, 24 h
[7] = system: Staphylococcus aureus; assay: Antibacterial activity against Staphylococcus aureus MTCC 2940 assessed as growth inhibition after 24 hr by broth microdilution method; details: MTCC 2940, 24 h

| Structure (SMILES) | MIC [1] [µg/mL] | MIC [2] [µg/mL] | MIC [3] [µg/mL] | MIC [4] [µg/mL] | MIC [5] [µg/mL] | MIC [6] [µg/mL] | MIC [7] [µg/mL] |
| --- | --- | --- | --- | --- | --- | --- | --- |
| Nc1ccc(S(=O)(=O)NCc2nc3ccccc3c(=O)n2-c2ccccc2Br)cc1 | 45 (≈ 92.7 µM) | 85 (≈ 175 µM) | 70 (≈ 144 µM) | 55 (≈ 113 µM) | 65 (≈ 134 µM) | 55 (≈ 113 µM) | 55 (≈ 113 µM) |
| Nc1ccc(S(=O)(=O)NCc2nc3ccccc3c(=O)n2-c2ccccc2F)cc1 | 55 (≈ 130 µM) | 95 (≈ 224 µM) | 90 (≈ 212 µM) | 65 (≈ 153 µM) | 70 (≈ 165 µM) | 65 (≈ 153 µM) | 65 (≈ 153 µM) |
| Nc1ccc(S(=O)(=O)NCc2nc3ccccc3c(=O)n2-c2ccc(F)cc2)cc1 | 45 (≈ 106 µM) | 85 (≈ 200 µM) | 55 (≈ 130 µM) | 60 (≈ 141 µM) | 65 (≈ 153 µM) | 55 (≈ 130 µM) | 60 (≈ 141 µM) |
| CC(=O)Nc1ccc(S(=O)(=O)NCc2nc3ccccc3c(=O)n2-c2ccc(F)cc2)cc1 | 55 (≈ 118 µM) | 95 (≈ 204 µM) | 95 (≈ 204 µM) | 80 (≈ 171 µM) | 85 (≈ 182 µM) | 75 (≈ 161 µM) | 80 (≈ 171 µM) |
| CC(=O)Nc1ccc(S(=O)(=O)NCc2nc3ccccc3c(=O)n2Nc2ccccc2)cc1 | 105 (≈ 227 µM) | 145 (≈ 313 µM) | 130 (≈ 280 µM) | 120 (≈ 259 µM) | 125 (≈ 270 µM) | 115 (≈ 248 µM) | 100 (≈ 216 µM) |
| COc1cccc(-n2c(CNS(=O)(=O)c3ccc(NC(C)=O)cc3)nc3ccccc3c2=O)c1 | 65 (≈ 136 µM) | 110 (≈ 230 µM) | 90 (≈ 188 µM) | 70 (≈ 146 µM) | 100 (≈ 209 µM) | 75 (≈ 157 µM) | 85 (≈ 178 µM) |
| Nc1ccc(S(=O)(=O)NCc2nc3ccccc3c(=O)n2-c2ccc([N+](=O)[O-])cc2)cc1 | 45 (≈ 99.7 µM) | 75 (≈ 166 µM) | 75 (≈ 166 µM) | 55 (≈ 122 µM) | 60 (≈ 133 µM) | 55 (≈ 122 µM) | 65 (≈ 144 µM) |
| CC(=O)Nc1ccc(S(=O)(=O)NCc2nc3ccccc3c(=O)n2-c2ccccc2[N+](=O)[O-])cc1 | 65 (≈ 132 µM) | 115 (≈ 233 µM) | 90 (≈ 182 µM) | 80 (≈ 162 µM) | 100 (≈ 203 µM) | 75 (≈ 152 µM) | 85 (≈ 172 µM) |
| Nc1ccc(S(=O)(=O)NCc2nc3ccccc3c(=O)n2-c2ccccc2Cl)cc1 | 50 (≈ 113 µM) | 90 (≈ 204 µM) | 90 (≈ 204 µM) | 60 (≈ 136 µM) | 60 (≈ 136 µM) | 55 (≈ 125 µM) | 60 (≈ 136 µM) |
| Nc1ccc(S(=O)(=O)NCc2nc3ccccc3c(=O)n2-c2cccc(Cl)c2)cc1 | 50 (≈ 113 µM) | 80 (≈ 181 µM) | 65 (≈ 147 µM) | 55 (≈ 125 µM) | 55 (≈ 125 µM) | 50 (≈ 113 µM) | 55 (≈ 125 µM) |
| Nc1ccc(S(=O)(=O)NCc2nc3ccccc3c(=O)n2-c2ccc(Cl)cc2)cc1 | 40 (≈ 90.7 µM) | 75 (≈ 170 µM) | 55 (≈ 125 µM) | 45 (≈ 102 µM) | 50 (≈ 113 µM) | 45 (≈ 102 µM) | 45 (≈ 102 µM) |
| CC(=O)Nc1ccc(S(=O)(=O)NCc2nc3ccccc3c(=O)n2-c2ccccc2Cl)cc1 | 60 (≈ 124 µM) | 100 (≈ 207 µM) | 100 (≈ 207 µM) | 75 (≈ 155 µM) | 75 (≈ 155 µM) | 70 (≈ 145 µM) | 70 (≈ 145 µM) |

Further lines, results first:

| MIC [1] [µg/mL] | MIC [2] [µg/mL] | MIC [3] [µg/mL] | MIC [4] [µg/mL] | MIC [5] [µg/mL] | MIC [6] [µg/mL] | MIC [7] [µg/mL] | Structure (SMILES) |
| --- | --- | --- | --- | --- | --- | --- | --- |
| 70 (≈ 150 µM) | 95 (≈ 204 µM) | 105 (≈ 225 µM) | 85 (≈ 182 µM) | 95 (≈ 204 µM) | 80 (≈ 171 µM) | 85 (≈ 182 µM) | CC(=O)Nc1ccc(S(=O)(=O)NCc2nc3ccccc3c(=O)n2-c2ccccc2F)cc1 |
| 105 (≈ 249 µM) | 115 (≈ 273 µM) | 105 (≈ 249 µM) | 115 (≈ 273 µM) | 95 (≈ 225 µM) | 90 (≈ 214 µM) | 100 (≈ 237 µM) | Nc1ccc(S(=O)(=O)NCc2nc3ccccc3c(=O)n2Nc2ccccc2)cc1 |
| 40 (≈ 83.6 µM) | 100 (≈ 209 µM) | 65 (≈ 136 µM) | 50 (≈ 104 µM) | 90 (≈ 188 µM) | 50 (≈ 104 µM) | 55 (≈ 115 µM) | COc1ccc(-n2c(CNS(=O)(=O)c3ccc(NC(C)=O)cc3)nc3ccccc3c2=O)cc1 |
| 55 (≈ 122 µM) | 95 (≈ 210 µM) | 85 (≈ 188 µM) | 65 (≈ 144 µM) | 75 (≈ 166 µM) | 70 (≈ 155 µM) | 75 (≈ 166 µM) | Nc1ccc(S(=O)(=O)NCc2nc3ccccc3c(=O)n2-c2ccccc2[N+](=O)[O-])cc1 |
| 50 (≈ 111 µM) | 90 (≈ 199 µM) | 85 (≈ 188 µM) | 60 (≈ 133 µM) | 65 (≈ 144 µM) | 60 (≈ 133 µM) | 70 (≈ 155 µM) | Nc1ccc(S(=O)(=O)NCc2nc3ccccc3c(=O)n2-c2cccc([N+](=O)[O-])c2)cc1 |
| 60 (≈ 122 µM) | 110 (≈ 223 µM) | 80 (≈ 162 µM) | 75 (≈ 152 µM) | 95 (≈ 193 µM) | 70 (≈ 142 µM) | 80 (≈ 162 µM) | CC(=O)Nc1ccc(S(=O)(=O)NCc2nc3ccccc3c(=O)n2-c2cccc([N+](=O)[O-])c2)cc1 |
| 55 (≈ 111 µM) | 105 (≈ 213 µM) | 85 (≈ 172 µM) | 70 (≈ 142 µM) | 90 (≈ 182 µM) | 70 (≈ 142 µM) | 80 (≈ 162 µM) | CC(=O)Nc1ccc(S(=O)(=O)NCc2nc3ccccc3c(=O)n2-c2ccc([N+](=O)[O-])cc2)cc1 |
